What all share (type): functional
One assay has as its system W256. Put plainly: Cytotoxic activity against the Walker 256 carcinosarcoma in rats. The conditions noted are these: Rattus norvegicus, read-out: ED50 (the source's name).
Another assay concerns CCRF S-180. Put plainly: Cytotoxic activity against the S180 cell cultures. The conditions noted are these: Mus musculus, read-out: ED50 (the source's name).
Another assay relates to L1210. Put plainly: Cytotoxic activity against the L1210 cell cultures. The conditions noted are these: Mus musculus, read-out: ED50 (the source's name).

`CN(Cc1cnc2nc(N)nc(N)c2n1)c1ccc(C(=O)N[C@@H](CCC(=O)O)C(=O)O)cc1` [METHOTREXATE]: the EC50 was 20 nM with W256, 16 nM in the assay with CCRF S-180 and 16 nM in the assay on L1210.
For the compound `COc1ccc(OC)c(Cc2cnc3nc(N)nc(N)c3c2C)c1` [PIRITREXIM], the EC50 with W256 was determined as 8 nM; in the assay on CCRF S-180 it was 12 nM; in the assay on L1210 it was 2 nM.
For `Cc1nc(N)nc(N)c1-c1ccc(Cl)c(Cl)c1` [METOPRINE], the EC50 in the assay on W256 worked out at 50 nM; with CCRF S-180, 50 nM; in the assay on L1210 it was 220 nM.

For the origin of these results see ChEMBL document CHEMBL1121591, “Synthesis and antitumor activity of 2,4-diamino-6-(2,5-dimethoxybenzyl)-5-methylpyrido[2,3-d]pyrimidine” (1980).
